Measured values as given in patent US20030027722A1, “Influencing the activity of plant growth regulators” (priority 1998, published 2003).

Key:
apple stalk slices = test: rooting regeneration on apple stalk slices with elicitors; format: cell-based; settings: roots, apple, 1 μM indolebutyric or indoleacetic acid, 1 or 3 days
Method: The effect of the elicitors on rooting regeneration on apple stalk slices was studied. The stalk slices were incubated on medium with elicitors in combination with a sub-optimal auxin concentration (1 μM indolebutyric acid or 1 μM indoleacetic acid) which were added for 1 or 3 days to the plant tissue for testing. The increase was measured in the number of regenerated roots compared to the auxin control.

cut flowers (carnations) = test: retarding the aging of cut flowers; format: in vivo, carnation
Method: The DMF was evaporated and the remaining solid was dissolved in methanol and filtered. Diluted hydrochloric acid was added to the methanol solution. After 2 hours at room temperature the solvent was evaporated and G-A-A was obtained.

apple = test: roots per tissue fragment in apple; format: cell-based
Description: An apple IAA may induce a maximum of 3.5 roots per tissue fragment, while IAA-N-BSA induces a maximum of 8 roots per tissue fragment. Very recalcitrant trees like summer oak and cork oak can be rooted to a much higher percentage than with any of the conventionally applied rooting powders. The compounds described in EXAMPLE 3 and together with elicitors in Table 1 show similar effects.

apple and rose [1] = test: rooting in apple and rose, stem-disk method; format: cell-based; settings: rooting powder, stem-disks
Method: The auxin compounds were tested with respect to rooting in apple and rose
b) Tests are performed by the stem-disk method as published by Van der Krieken et al., Plant Cell Reports (1993), vol. 12, 203-206, in which the number of roots of a large number of stem-disks cut from a particular plant are counted and treated with rooting powder containing in this case the compounds described.

[2] = system: rose, chrysanthemum, carnation; test: rooting powder comparison, average over species; format: in vivo; settings: for average category: average over the species tested; for overall assessment of rooting powders from Table 2: in vivo
Description: (§1) d) In Table 2 standard indol butyric acid (IBA), which is the active component in most currently used rooting powders, is compared with indol hexanolic acid (IHA) and two BSA adducts, both—coupled, namely IBA and indole acetic acid (BSA-N-IAA). The effect on rooting and the plant development (stem growth, outgrowth of new shoots, synchronicity of growth of a population of plants) were inter alia factors determining the place in the categories which ranged from 1 to 6. The compounds with the best relative overall effect on rooting and development were placed in category I. Rooting and subsequent development of scions for different types of herbaceous and woody plants differs largely for those types of plants. A rose cultivar, “enermus stur cinq”, was used as an example of a recalcitrant woody plant. The chrysanthemum species “regan” is an example of an easy to root herbaceous plant.

tissue explants of rose = test: shoot formation on tissue explants of rose; format: cell-based
Method: It was also observed that tissue explants of rose when treated with IBA (normal addition) or IHA, respectively, formed about 50 times more shoots (2 shoots versus 100 per 20 tissue explants) in the latter case.
In the studies for new applications of PGRs and/or elicitors, which were performed within the framework of the present invention, several new and unexpected observations were made. […] Furthermore, the inventors established that elicitors do cause a statistically significant growth retardation of all tissues, as can be illustrated for rose shoots. This effect was enhanced by PGR(s), in casu antigibberelins, i.e. paclobutrasol. […] Finally the observation was made that when tissue explants of rose were treated with respectively IBA (normal addition) or IHA, in the last case about 50 times more shoots were formed (2 shoots versus 100 per 20 tissue explants).

rose = test: rooting powder comparison, rooting and development of scions, rose; format: in vivo; set-up: key: 1: The compounds with the best relative overall effect on rooting and development were placed in category I; categories which ranged from 1 to 6
Description: as §1

apple and rose [3] = test: root induction in apple and rose; format: in vivo
Description: It is also possible to offer a hormone precursor, which is converted into an active hormone by metabolic processes. Indole-3-hexanoic acid (I-H-A) is converted by two beta-oxidation steps (the enzymes therefor are present in the plant) into the auxin indole-3-acetic acid (I-A-A). I-H-A is thus a special form of a slow-release source.

carnation = test: rooting powder comparison, rooting and development of scions, carnation; format: in vivo; set-up: key: 1: The compounds with the best relative overall effect on rooting and development were placed in category I; categories which ranged from 1 to 6
Description: as §1

chrysanthemum = test: rooting powder comparison, rooting and development of scions, chrysanthemum; format: in vivo; set-up: key: 1: The compounds with the best relative overall effect on rooting and development were placed in category I; categories which ranged from 1 to 6
Description: as §1

Brassica napens = test: microspore embryogenesis; format: cell-based; settings: in combination with colchicine
[4] = system: Carnations (cultivar Miledy); test: senescence of carnations after simulated dry transport; format: in vivo, carnation
Method: The flowers were treated for one day with silver thiosulfate (STS), t-BOC-AOA, or with water in the case of controls. The flowers were then subjected to simulated dry transport conditions: 4 days at 8° C. and a relative humidity of 75%. The bottom 5 cm of each stem was then removed, and the flowers were incubated on water for 2 hours at 8° C. and a relative humidity of 75%. The flowers were then transferred to a climate room with standard flower development conditions (20° C., relative humidity of 75%, light level of 1000 lux). Senescence of the flowers was then determined every day. If flowers started wilting (mostly at the edges of the petals) or changed color they were no longer in the category of “flowers in a perfect stage” (see Table 3).

plantroots = test: root induction by chemically modified auxins on various plants; settings: in vivo
Description: Attaching IAA to BSA is done to increase the amount of IAA administered to the roots. Up to 32 IAA molecules can be attached to BSA in 2 different ways. Either as N-conjugate of IAA or as C-conjugate. Upon addition of the IAA-BSA to plantroots, the IAA is split off in the root and leads to the availability of IAA during a longer period allowing the root tissue to become sensitive.

[5] = rose enermus stur cinq (recalcitrant woody plant)
[6] = chrys. regan (easy to root herbaceous plant)
[7] = 7 d after the start of the experiment
[8] = 8 d after the start of the experiment
[9] = 9 d after the start of the experiment
[10] = 10 d after the start of the experiment
[11] = 11 d after the start of the experiment
[12] = 12 d after the start of the experiment
[13] = 13 d after the start of the experiment
[14] = 14 d after the start of the experiment
[15] = 15 d after the start of the experiment
[16] = 16 d after the start of the experiment
[17] = 17 d after the start of the experiment
[18] = 18 d after the start of the experiment
[19] = 19 d after the start of the experiment
[20] = 20 d after the start of the experiment
[21] = 21 d after the start of the experiment
[22] = 22 d after the start of the experiment

For `CC(=O)Nc1ccc(O)cc1` [4-acetamidophenol], the “increased regeneration in relation to control (auxin alone)” value (shortened to “increased regeneration in relation”) (apple stalk slices; elicitor 1 μM) was 75%.
For `CC(C)(NC(=O)CCC(=O)NC(C)(C)C(=O)O)C(=O)O` [A-S-A], the “activity in retarding the aging of the flowers, times relative to non-modified AIB” value (cut flowers (carnations); in water, concentration 5×10^−5 to 10^−3 M, carnations) was 50.
In the case of `O=C(O)Cc1c[nH]c2ccccc12` [IAA, indole-3-acetic acid, reference compound], the “maximum of roots per tissue fragment” value (apple) is reported as 3.5 roots per tissue fragment.
For `CC(C)(NC(=O)CCCc1c[nH]c2ccccc12)C(=O)O` [IBA-AIB], the “rooting compared with standard hormone treatment / IBA alone” value (apple and rose [1]) was “more active than the standard hormone treatment”.
`O=C(O)CCCCCc1c[nH]c2ccccc12` [IHA, Indole-3-hexanoic acid] was tested, and the average category [2] was 1.33, the “overall assessment of rooting powders from Table 2” value [2] was “very generally applicable and very effective” and the shoots formed (tissue explants of rose) was 100 shoots per 20 tissue explants. The “times more shoots than with IBA” value (tissue explants of rose) was “about 50”, the “category of relative overall effect on rooting and plant development” value (from here on “category of relative overall effect”) (rose; [5]) was 1 and the “category of relative overall effect” value (rose; rose n. brier) was 1. For the same molecule, the “activity in root induction relative to I-A-A” value (apple and rose [3]) was “thirty times more active than I-A-A”, the “category of relative overall effect” value (carnation; carnation m. brilj.) was 1 and the “category of relative overall effect” value (carnation; carnation tempo) was 2. For the same molecule, the “category of relative overall effect” value (chrysanthemum; [6]) was 2 and the “category of relative overall effect” value (chrysanthemum; chrys. snowdon) was 1.
In the case of `C=CC(C)(C)OC[C@H]1O[C@H](O[C@@H]2C3=C([C@H](C)COC(C)=O)C[C@H](O)[C@]3(C)/C=C3/[C@@H](COC)CC[C@H]3[C@@H](C)[C@H]2O)[C@H](O)[C@@H](OC(C)=O)[C@@H]1O` [fusicocine], the “increased regeneration in relation” value (apple stalk slices; elicitor 0.01 μM) is reported as 75%.
With `CC/C=C\C[C@H]1C(=O)CC[C@@H]1CC(=O)O` [jasmonic acid] the “increased regeneration in relation” value (apple stalk slices; elicitor 0.01 μM) was 210%.
`CCCCCCCCC(=O)O` [nonanoic acid] was tested, and the “increase in microspore embryogenesis” value (Brassica napens) was 125% and the “increased regeneration in relation” value (apple stalk slices; elicitor 0.1-1 μM) was 300%.
`CC(C)(C)OC(=O)NOCC(=O)O` [t-Boc-AOA, tertiair-butyloxycarbonylaminooxyacetic acid] was tested, and the “Percentage of flowers in the perfect stage after treatment” value (“Percentage of flowers” below) [4, 7] was 100%, the “Percentage of flowers” value [4, 8] was 100% and the “Percentage of flowers” value [4, 9] was 100%. For the same molecule, the “Percentage of flowers” value [4, 10] was 100%, the “Percentage of flowers” value [4, 11] was 100% and the “Percentage of flowers” value [4, 12] was 100%. The “Percentage of flowers” value [4, 13] was 100%, the “Percentage of flowers” value [4, 14] was 100% and the “Percentage of flowers” value [4, 15] was 100%. The “Percentage of flowers” value [4, 16] was 100%, the “Percentage of flowers” value [4, 17] was 85% and the “Percentage of flowers” value [4, 18] was 75%. The “Percentage of flowers” value [4, 19] was 53%, the “Percentage of flowers” value [4, 20] was 30% and the “Percentage of flowers” value [4, 21] was 4%. For the same molecule, the “Percentage of flowers” value [4, 22] was 0% and the “delaying flower senescence, compared with STS” value ([4]; summary of Table 3) was “generally comparable to or superior to STS”.
In the case of `O=C(OC[C@H]1O[C@@H](OC(=O)c2cc(O)c(O)c(OC(=O)c3cc(O)c(O)c(O)c3)c2)[C@H](OC(=O)c2cc(O)c(O)c(OC(=O)c3cc(O)c(O)c(O)c3)c2)[C@@H](OC(=O)c2cc(O)c(O)c(OC(=O)c3cc(O)c(O)c(O)c3)c2)[C@@H]1OC(=O)c1cc(O)c(O)c(OC(=O)c2cc(O)c(O)c(O)c2)c1)c1cc(O)c(O)c(OC(=O)c2cc(O)c(O)c(O)c2)c1` [tannic acid], the “increased regeneration in relation” value (apple stalk slices; elicitor 1 μM) is reported as 225%.
With “IAA-C-BSA: indoleacetic acid-C-conjugate with BSA” the “effectiveness in root induction, comparison” value (plantroots) was “somewhat less effective in root induction as IAA-N-BSA, but still better than IAA alone”.
For “IAA-N-BSA: indoleacetic acid-N-conjugate with BSA”, the average category [2] was 1.8, the “overall assessment of rooting powders from Table 2” value [2] was “especially suited for recalcitrant plants” and the “category of relative overall effect” value (rose; [5]) was 1. The “category of relative overall effect” value (rose; rose n. brier) was 3, the “maximum of roots per tissue fragment” value (apple) was 8 roots per tissue fragment and the “category of relative overall effect” value (carnation; carnation m. brilj.) was 1. For the same molecule, the “category of relative overall effect” value (carnation; carnation tempo) was 3, the “category of relative overall effect” value (chrysanthemum; [6]) was 1 and the “category of relative overall effect” value (chrysanthemum; chrys. snowdon) was 2.
In the case of “IBA-N-BSA: N-conjugate with BSA made with IBA instead of IAA”, the average category [2] is reported as 2.0, the “category of relative overall effect” value (rose; [5]) is reported as 2 and the “category of relative overall effect” value (rose; rose n. brier) is reported as 1. The “category of relative overall effect” value (carnation; carnation m. brilj.) was 1, the “category of relative overall effect” value (carnation; carnation tempo) was 3 and the “category of relative overall effect” value (chrysanthemum; [6]) was 4. For the same molecule, the “category of relative overall effect” value (chrysanthemum; chrys. snowdon) was 1.
In the case of “glucose-acetate-amino-oxyacetic acid [G-A-A]”, the effect against aging (cut flowers (carnations); carnation) is reported as “effective means against aging”.
“indole butyric acid [IBA, reference compound]” was tested, and the average category [2] was 2.25, the shoots formed (tissue explants of rose) was 2 shoots per 20 tissue explants and the “category of relative overall effect” value (rose; [5]) was 3. The “category of relative overall effect” value (rose; rose n. brier) was 1, the “category of relative overall effect” value (chrysanthemum; [6]) was 4 and the “category of relative overall effect” value (chrysanthemum; chrys. snowdon) was 1.
In the case of “silver thiosulfate [STS, reference compound]”, the “Percentage of flowers” value [4, 7] is reported as 100%, the “Percentage of flowers” value [4, 8] is reported as 100% and the “Percentage of flowers” value [4, 9] is reported as 100%. The “Percentage of flowers” value [4, 10] was 100%, the “Percentage of flowers” value [4, 11] was 100% and the “Percentage of flowers” value [4, 12] was 100%. The “Percentage of flowers” value [4, 13] was 100%, the “Percentage of flowers” value [4, 14] was 100% and the “Percentage of flowers” value [4, 15] was 100%. For the same molecule, the “Percentage of flowers” value [4, 16] was 100%, the “Percentage of flowers” value [4, 17] was 88% and the “Percentage of flowers” value [4, 18] was 65%. The “Percentage of flowers” value [4, 19] was 8%, the “Percentage of flowers” value [4, 20] was 0% and the “Percentage of flowers” value [4, 21] was 0%. The “Percentage of flowers” value [4, 22] was 0%.
